From patent US20080085889A1, “Amidomethyl-Substituted 1-(Carboxyalkyl) Cyclopentyl-Carbonylamino-Benzazepine-N-Acetic Acid Compounds, Process and Intermediate Products for Their Preparation and Pharmaceutical Compositions Containing Them” (SOLVAY PHARMACEUTICALS GmbH, priority 2003, published 2008)

Key:
[1] = biological target: T1, soluble, human recombinant NEP (Homo sapiens, UniProt P08473); test: In-vitro investigation of the NEP inhibitory action (fluorescence-quenched Big-ET-1 analogue, HPLC); type: biochemical
T1 construct: soluble, human recombinant NEP; purchased Prof; Crine, University of Montreal, Canada
T1 sequence (P08473 52-750 limits assumed): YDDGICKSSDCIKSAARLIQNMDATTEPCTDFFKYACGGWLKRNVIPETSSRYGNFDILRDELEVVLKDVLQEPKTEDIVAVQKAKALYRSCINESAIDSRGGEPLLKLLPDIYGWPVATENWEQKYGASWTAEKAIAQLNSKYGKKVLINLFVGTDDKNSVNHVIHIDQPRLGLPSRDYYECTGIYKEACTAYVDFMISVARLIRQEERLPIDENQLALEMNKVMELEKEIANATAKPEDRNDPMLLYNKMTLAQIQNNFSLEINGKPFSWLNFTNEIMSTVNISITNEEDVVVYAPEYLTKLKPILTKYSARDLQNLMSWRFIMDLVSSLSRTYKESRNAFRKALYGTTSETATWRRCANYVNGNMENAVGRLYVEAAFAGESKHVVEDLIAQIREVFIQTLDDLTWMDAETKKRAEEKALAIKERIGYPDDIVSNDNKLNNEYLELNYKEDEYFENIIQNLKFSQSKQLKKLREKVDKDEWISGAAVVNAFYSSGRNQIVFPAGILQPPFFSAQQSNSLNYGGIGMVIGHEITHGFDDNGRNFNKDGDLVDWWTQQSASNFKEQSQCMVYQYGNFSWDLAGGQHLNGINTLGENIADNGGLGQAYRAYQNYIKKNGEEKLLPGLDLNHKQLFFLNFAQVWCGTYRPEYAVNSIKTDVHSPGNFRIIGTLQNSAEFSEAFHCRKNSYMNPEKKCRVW
Description: 1. In-Vitro Investigation of the NEP Inhibitory Action of the Substances
In this test, the measure of the inhibitory activity of the substances which was determined was their IC50 value. The IC50 value of a test substance having enzyme-inhibitory activity is that concentration of the test substance at which 50% of the enzymatic activity of the NEP is blocked.
70 μl test buffer, 10 μl enzyme working solution and 10 μl test substance solution were mixed in an Eppendorf vessel and preincubated at 37° C. for 15 minutes (=min.). Then 10 μl substrate stock solution was added and the test batch was incubated for 60 minutes at 37° C. The enzymatic reaction was then ended by 5-minutes' heating to 95° C. After centrifugation (Heraeus Biofuge B, 3 min.), the liquid supernatant was investigated by HPLC in accordance with the following specifications.
The substrate was separated from cleavage products by means of reversed-phase HPLC (CC 125/4 Nucleosil 300/5 C18 RP column with CC 8/4 Nucleosil 100/5 C18 precolumn, from Macherey-Nagel, Düren, Germany). For this, 60 μl of the test mixture was injected into the HPLC sample injection point and the column was then eluted at a flow rate of 1 ml/min with the following gradient:
Mobile Phase B: 100% acetonitrile+0.5M H3PO4
All the peptides were detected by absorption at 214 nm and by fluorescence with an excitation wavelength of 328 nm and an emission wavelength of 393 nm.
Upon enzymatic cleavage of the peptide, the fluorophore (=Mca) and the quencher end up in different peptide fragments, which reduces the effectiveness of the quench. […] The increasing fluorescence signal (corresponds to the area, A) of the HPLC peak of the peptide with the non-quenched Mca fluorophore is used for the further calculations. This signal was compared for samples with (=Ainhib) and without (=Acontrol) test substance of Formula I, and the value “% inhibition” was calculated on the basis of the respective peak areas according to the following formula: % inhibition=100*(1−Ainhib/Acontrol)
All the samples were measured in duplicates and average values were calculated therefrom. A standard inhibitor (10 nM thiorphan) and a solvent control (0.1% DMSO) were likewise measured as quality controls on each run. In this test model the test substances of Formula I listed in the following Table 1 had the IC50 values given below: […]

[2] = biological target: T2, His6-tagged hSEP ectodomain (Homo sapiens, UniProt Q495T6); test: In vitro investigation of the hSEP-inhibitory action (fluorescence-quenched Big-ET-1 analogue, HPLC); type: biochemical
T2 construct: His6-tagged hSEP ectodomain; His6; purchased Innogenetics, Ghent, Belgium
T2 sequence (Q495T6 49-779 limits assumed): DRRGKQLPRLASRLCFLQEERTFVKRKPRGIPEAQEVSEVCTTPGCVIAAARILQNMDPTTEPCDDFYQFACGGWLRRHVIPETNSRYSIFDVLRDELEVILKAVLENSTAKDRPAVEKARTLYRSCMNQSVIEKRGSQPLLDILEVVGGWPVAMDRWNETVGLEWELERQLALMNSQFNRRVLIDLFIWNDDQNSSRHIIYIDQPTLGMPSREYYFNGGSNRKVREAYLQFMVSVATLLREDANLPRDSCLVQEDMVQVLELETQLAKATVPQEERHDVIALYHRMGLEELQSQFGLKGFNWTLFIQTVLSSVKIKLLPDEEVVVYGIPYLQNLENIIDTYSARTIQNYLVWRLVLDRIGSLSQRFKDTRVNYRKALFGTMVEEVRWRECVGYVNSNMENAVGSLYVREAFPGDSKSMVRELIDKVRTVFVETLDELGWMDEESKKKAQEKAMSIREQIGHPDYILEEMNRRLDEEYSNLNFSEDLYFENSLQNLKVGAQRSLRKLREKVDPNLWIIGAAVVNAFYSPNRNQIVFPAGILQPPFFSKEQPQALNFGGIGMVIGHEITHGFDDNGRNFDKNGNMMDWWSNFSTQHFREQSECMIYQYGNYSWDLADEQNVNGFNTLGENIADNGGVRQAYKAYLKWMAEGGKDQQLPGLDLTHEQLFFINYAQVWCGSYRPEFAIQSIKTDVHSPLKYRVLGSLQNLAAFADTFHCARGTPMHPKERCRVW
Description: 2. In Vitro Investigation of the hSEP-Inhibitory Action of the Substances
In this test, the measure of the inhibitory activity of the substances which was determined was their IC50 value. The IC50 value of a test substance having enzyme-inhibitory activity is that concentration of the test substance at which 50% of the enzymatic activity of the hSEP is blocked.
The test and the HPLC procedure were carried out analogously to the manner set forth above for determining the in vitro inhibitory action of the test substances on NEP. 10 nM phosphoramidon served as standard inhibitor in the HPLC procedure. In this test model the test substances of Formula I listed in the following Table 2 had the IC50 values given below: […]

[3] = tested on: formation of ET-1 from Big-ET-1; test: In vivo inhibition of the Big-ET-1-induced blood pressure increase in anaesthetised rats, i.v. single dose; design: species or system Rats (Sprague-Dawley); conditions: Rattus norvegicus, iv, 10 μmol/kg, 5 min before 0.5 nmol/kg Big-ET-1, negative values indicate inhibition, read-out: % substance-related inhibition of the maximum Big-ET effect on SAP vs. control
Excerpt: 3. In Vivo Investigation of the Inhibitory Action of the Substances on the Formation of ET-1 from Big-ET-1 in Rats
ET-1 is an endogenous substance with strong vasoconstrictive effect. An increase in the ET-1 level results in an increase in blood pressure. Upon infusion of Big-ET-1, an increase in blood pressure takes place to the extent that ET-1 is produced therefrom by enzyme-catalysed cleavage of Big-ET-1. As a measurement of the enzyme-inhibiting action of the substances, their inhibitory action on the increase in blood pressure induced by infusion of Big-ET-1 was determined.
Rats (Sprague-Dawley, CRLD=Charles River) were anaesthetised with 1 ml/kg Rompun/Ketavet 1:1. A pressure transducer (Statham) was inserted into the carotid artery to measure blood pressure. One jugular vein was cannulated for administering the substance, and the other for administering Big-ET-1. After a 20-minute equilibration phase, the rats were administered the corresponding test substance of Formula I at a dose of as a rule 10 μmol/kg (if not stated otherwise), or a vehicle. Five minutes later, 0.5 nmol/kg Big-ET-1 was infused over a period of one minute. The systolic (SAP=systolic arterial pressure) and the diastolic (DAP=diastolic arterial pressure) blood pressure and the heart rate were each measured before administration of the substance, then immediately before administration of Big-ET and in each case every five minutes over a period of 30 minutes after Big-ET administration using the pressure transducer in known manner. The maximum Big-ET-induced increase in blood pressure and the maximum lowering of heart rate were calculated from the measured values as the difference between the value measured at the moment of maximum development of the Big-ET action (typically after 5 min.) and the value measured before Big-ET infusion. Furthermore, the integral of the blood pressure curve under the influence of Big-ET-1 was determined over 30 minutes (AUC=area under the curve).
The percentage inhibition of the maximum Big-ET-1 effect on the systolic arterial blood pressure (SAP) after i.v. administration of the test substances compared with administration of a vehicle is set forth in the following Table 3a:
Data given in table 3a as negative values indicate an inhibitory effect.

[4] = tested on: TUNEL positive cells in heart, liver and kidney; test: Adriamycin toxicity: determination of anti-apoptotic activity (TUNEL staining); type: in vivo, Wistar rats; conditions: adriamycin alone, 3 x 5 mg/kg i.p. (cumulative 15 mg/kg), vehicle minipump; day 5; ± SEM
Description: 2. Adriamycin Toxicity: Determination of Anti-Apoptotic Activity
Wistar rats, weighing 200-250 g, were anesthetized with chloral hydrate, 400 mg/kg, and Alzet osmotic minipumps (2 ML1), were implanted subcutaneously (=s.c.). The pumps had been filled with either vehicle or solution containing compounds of the invention at the appropriate concentration and primed prior to implantation. Animals subsequently received adriamycin at three equal daily doses of 5 mg/kg i.p. on days 1, 2 and 3. Rats were euthanized 5 days after the first injection of adriamycin and transcardially perfused with a solution containing 4% paraformaldehyde in phosphate buffer. The heart, liver and kidneys were subsequently removed and embedded in parafin.
TUNEL staining: For terminal deoxynucleotide transferase-mediated dUTP nick end-label (TUNEL) based histological analysis, organs were post-fixed for 5 days at 4° C. and paraffin-embedded. TUNEL staining was performed on 10 μm thick paraffin sections using the ApopTag Peroxidase kit (S 7100, Oncor Appligene, Heidelberg, Germany) according to the manufacturer's instructions. Briefly, after pretreatment with proteinase K and quenching of endogenous peroxidase, sections were incubated in equilibration buffer followed by working strength TdT enzyme (incorporating digoxigenin labeled dUTP nucleotides to free 3′-OH DNA termini), (1 hr, 37° C.). Sections were incubated in stop/wash buffer (30 min, 37° C.), then with anti-digoxigenin-peroxidase conjugate (30 min) followed by DAB substrate (Sigma, Deisenhofen, Germany) and lightly counterstained with methylgreen.
Wistar rats were administered adriamycin at the cumulative dose of 15 mg/kg i.p. The test substance of Example 4 was administered s.c. at the doses of 20, 50 or 100 mg/kg and day by means of Alzet osmotic minipumps over 5 days. Animals were euthanized and transcardially perfused 5 days after the first injection of adriamycin and the heart, kidney and liver were processed for TUNEL staining. Densities of TUNEL positive cells were determined as described in the methods. Results for each organ (heart, liver, kidney) were measured as mean densities of TUNEL positive cells ±SEM for the control groups and the different test groups (20, 50 or 100 mg/kg and day of test compound of Example 4) and listed in table 8 below.
Comparisons between groups were performed by means of Student's t test (**P<0.01; ***P<0.001 compared to vehicle treated rats).

SMILES | IC50 [1] [nM] | IC50 [2] [nM] | change in vivo at 10 µmol/kg [3] [%] | TUNEL positive cells, Heart [4] [cells/mm3 × 102] | TUNEL positive cells, Kidney [4] [cells/mm3 × 102] | TUNEL positive cells, Liver [4] [cells/mm3 × 102]
COCCNC(=O)CC(CC1(C(=O)N[C@H]2CCc3ccccc3N(CC(=O)O)C2=O)CCCC1)C(=O)O (mixture of isomers) [Example 16] | 20 | 15 | -45 |  |  | 
COc1ccc(C(=O)CNC(=O)CC(CC2(C(=O)N[C@H]3CCc4ccccc4N(CC(=O)O)C3=O)CCCC2)C(=O)O)cc1 (mixture of isomers) [Example 20] | 12.9 | 36.3 | -67 |  |  | 
COc1cccc2c1C(=O)c1c(O)c3c(c(O)c1C2=O)C[C@@](O)(C(=O)CO)C[C@@H]3O[C@H]1C[C@H](N)[C@H](O)[C@H](C)O1 [Adriamycin, adriamycin, reference compound] |  |  |  | 5.417 ± 0.146 | 9.438 ± 0.198 | 10.420 ± 0.275

The next lines start with results.

IC50 [1] [nM] | IC50 [2] [nM] | SMILES | change in vivo at 10 µmol/kg [3] [%] | TUNEL positive cells, Heart [4] [cells/mm3 × 102] | TUNEL positive cells, Kidney [4] [cells/mm3 × 102] | TUNEL positive cells, Liver [4] [cells/mm3 × 102]
< 1 | 24 | O=C(O)CN1C(=O)[C@@H](NC(=O)C2(CC(CC(=O)NC3CCCCNC3=O)C(=O)O)CCCC2)CCc2ccccc21 (mixture of isomers) [Example 17] | -46 |  |  | 
10.6 | 17.3 | O=C(O)CN1C(=O)[C@@H](NC(=O)C2(CC(CC(=O)NCC3CC3)C(=O)O)CCCC2)CCc2ccccc21 (mixture of isomers) [Example 23] | -40 |  |  | 
11.1 | 27 | COc1ccc(CNC(=O)CC(CC2(C(=O)N[C@H]3CCc4ccccc4N(CC(=O)O)C3=O)CCCC2)C(=O)O)cc1 (mixture of isomers) [Example 24] | -54 |  |  | 
10 | 4 | CCN(CCCCN)C(=O)CC(CC1(C(=O)NC2CCc3ccccc3N(CC(=O)O)C2=O)CCCC1)C(=O)O (racemic) [Example 76, 4-[(4-aminobutyl)(ethyl)amino]-2-{[1-({[1-(carboxymethyl)-2-oxo-2,3,4,5-tetrahydro-1H-1-benzazepin-3-yl]amino}carbonyl)cyclopentyl]methyl}-4-oxobutanoic acid] | -93 |  |  | 
12 | 4 | CN(C)CCN(C)C(=O)CC(CC1(C(=O)NC2CCc3ccccc3N(CC(=O)O)C2=O)CCCC1)C(=O)O (stereo not drawn) [Example 59, 2-{[1-({[1-(carboxymethyl)-2-oxo-2,3,4,5-tetrahydro-1H-1-benzazepin-3-yl]amino}carbonyl)cyclopentyl]methyl}-4-[[2-(dimethylamino)ethyl](methyl)amino]-4-oxobutanoic acid] | -98 |  |  | 
